Row | melting point [°C] | Structure (SMILES)
1 | 151 to 153 | CCOC(=O)c1cnc(N2CCN(Cc3ccccc3)CC2)nc1O
2 | 174 to 181 | CS(=O)(=O)c1ccc(-n2nc(C(F)(F)F)nc2-c2ccc(Br)cc2)nn1
3 | 81 to 82 | CCOC(=O)CCc1nnc(-c2ccc3c(c2)CCO3)o1
4 | 120 to 122 | CC(C)CCCC(C)C1CCC2C3CC=C4CC(OC(=O)C(C)O)CCC4(C)C3CCC12C (stereo not given)
5 | 131 to 132 | Nc1nccc(OCCc2ccccc2)c1[N+](=O)[O-]
6 | 38 to 40 | COc1ccc(C2(O)CCC3CN(Cc4ccccc4)CCC3C2)cc1 (stereo not given)
7 | 72 to 73 | CCOC(=O)c1cc(-c2nn3c(c2Cl)CCCC3)c(F)cc1Cl
8 | 181 to 184 | CC(C)(C)C(=O)Nc1nn(C(=O)C(C)(C)C)c(N)c1C#N
9 | 104 to 106 | COc1cc(Cl)ccc1-c1ccc(C(C)=O)cc1[N+](=O)[O-]
10 | 134 to 136 | CC(=O)SCCC(=O)N1c2ccc(Cl)cc2CCC1C(=O)O (stereo not given)
11 | 71 to 72 | Cc1ccc(C(C)(C)C)c(O)c1C(=O)Oc1ccccc1
12 | 114 to 116 | O=C(N[C@@H](CO)c1nc2cc(Br)ccc2[nH]1)c1ccc(C(=O)N2CCCC2)c(Br)c1
13 | 105 to 106 | COC(=O)c1ccc(CN([C@@H](C)c2ccccc2)S(=O)(=O)c2ccc(Cl)cc2)cc1
14 | 203 to 206 | Cc1cc(C)nc(NC(=O)NS(=O)(=O)c2cccc3c2OC(C)(C)C3)n1
15 | 78.7 to 79.4 | Brc1ccc2c(c1)cc1n2CCC1
16 | 234 | COc1ccc(N(C)c2nc(N)nc3[nH]c4ccccc4c23)cc1
17 | 160 | Cc1cc(C)n(C(=O)C(NS(=O)(=O)c2ccc(Cl)cc2)c2ccccc2)n1 (stereo not given)

Row | melting point [°C] | Structure (SMILES)
18 | 126 to 127 | CCN1C(=O)Cc2cc(C=O)ccc21
19 | 300 to 302 | Cc1csc(-c2cc(-c3ccncc3)c3n(c2=O)CCCc2ccncc2-3)n1
20 | 127 to 130 | O=C1c2ccccc2COc2c(Br)cccc21
21 | 55 to 57 | COc1nc2c(Cl)cccc2s1
22 | 129 to 130 | Cc1cc(SCCC#Cc2ccc(C(F)(F)F)cc2)ccc1OCC(=O)O
23 | 177 | O=C(NCc1ccc(OC(F)(F)F)cc1)Nc1cccc2[nH]ccc12
24 | 108 to 110 | CCOC=CC(=O)Nc1cccc(C(=O)OC)c1
25 | 126 to 128 | CCC(Oc1ccc(CCC(=O)c2ccc(-c3ccc(C(F)(F)F)cc3)s2)cc1Br)C(=O)O (stereo not given)
26 | 238 | O=C(N[C@H]1C[C@H](C(=O)O)Nc2cc(Cl)cc(Cl)c21)C(c1ccccc1)c1ccccc1 (relative stereo)
27 | 149 | CC(Oc1cc(-c2nn(C)c(OC(F)F)c2Cl)c(Cl)cc1Cl)C(=O)N(C)C (stereo not given)
28 | 147 to 149 | NC(=O)c1cc(-n2cccn2)ccc1N
29 | 202 to 203 | COc1ccc(C(=O)O)c(Sc2ccc(SC)cc2)c1
30 | 45 to 46 | CCCCCCCC1(CCCCCCC)c2cc(Br)ccc2-c2ccc(Br)cc21
31 | 168 to 169 | O=c1[nH]c2ccc(-c3cccc(Cl)c3)cc2n1Cc1ccccc1
32 | 120 | Nc1ccc(N2CCN(c3ccc(OCC(O)(Cn4cncn4)c4ccc(Cl)cc4Cl)cc3)CC2)cc1 (stereo not given)
33 | 243 to 245 | Cc1ccc(C(=O)C2=C(O)C(=O)N(c3ccc(C)nn3)C2c2cccc(OC(C)C)c2)cc1 (stereo not given)

Second part, the compound before the results:

Row | Structure (SMILES) | melting point [°C]
34 | CC(=O)SC(CC(=O)c1ccc(Oc2ccccc2)cc1)C(=O)O (stereo not given) | 106
35 | CCn1c2ccccc2c2cc3ccccc3c(C=O)c21 | 95.5 to 96.5
36 | CC(C#N)c1ccc(O)cc1 (stereo not given) | 41 to 46
37 | CCCc1nc2c(N)nc3ccccc3c2n1CCCC(C)N(OC)C(=O)NC1CCCC1 (stereo not given) | 182 to 184
38 | OC(Cn1ncc2c(Br)ncnc21)c1ccccc1 (stereo not given) | 146 to 147
39 | Cc1noc(NS(=O)(=O)c2ccccc2-c2c[nH]c3ccccc23)c1C | 184 to 186
40 | CSc1ncc2cc(C)c(N)nc2n1 | 268 to 270
41 | O=C(c1cccnc1Cl)N(O)C1CCCCC1 | 151 to 153
42 | O=Cc1cc2ccsc2c2ccccc12 | 96 to 96.5
43 | COc1ccccc1-c1c(CC(=O)O)n(C)c2ccc(Cl)cc12 | 153 to 154
44 | CCC(C)Cc1nc(-c2cc[nH]n2)nc(OC)c1-c1c(F)cc(F)cc1F (stereo not given) | 124
45 | CC(=O)c1ccc(-c2ccc(F)cc2F)c(Cl)c1 | 63 to 64
46 | NC(=O)[C@@H]1[C@H](Nc2c(Br)cnc3[nH]c(-c4ccccc4-n4cccn4)nc23)[C@H]2C=C[C@@H]1C2 | 120
47 | CCCN(CCC)C1Cc2cc3c(=O)[nH]n(Cc4ccccc4)c(=O)c3cc2C1 (stereo not given) | 219 to 220
48 | Cc1ccc([C@@H]2C[C@H]3C=C(c4n[nH]c(-c5ccc(F)cc5)c4-c4ccncc4)CCN3C2)cc1 | 222 to 225
49 | COc1ccccc1Nc1ncccc1[N+](=O)[O-] | 151 to 153
50 | CCC(CC)c1ccc(Cl)c2nc3n(c12)CC(=O)N3c1cnc(N(C)C)cc1C | 222 to 224
51 | CC(=O)c1ccc(-n2sc3ccccc3c2=O)cc1 | 183 to 185
52 | COc1ccc(C(O)(c2ccc3c(c2)C(c2cccc(Cl)c2)Nc2nnnn2-3)c2cncn2C)cc1 (stereo not given) | 220

Row | Structure (SMILES) | melting point [°C]
53 | CC(C)N(CCN1C(=O)/C(=N/NC(N)=O)c2ccccc21)C(C)C | 189 to 191
54 | CCOC(=O)CCCCCCC1C(=O)NC(=O)N1C1(O)CCCCC1 (stereo not given) | 62 to 63
55 | Brc1ccc(Nc2ncc3cc4ccccc4n3n2)cc1 | 237 to 243
56 | CCCCCC(O)C=CC1C(O)CC(=O)C1CCCCCCC(=O)Oc1ccc(-c2cc(=S)ss2)cc1 (stereo not given) | 101 to 105
57 | CCOC(=O)/C=C\C=C(c1ccccc1)c1ccccc1 | 34 to 35
58 | CCCCCCNC(=O)Nc1ccccc1C(=O)NCCC1CCN(C(c2ccccc2)c2ccccc2)CC1 | 143 to 144
59 | CS(=O)(=O)N(C(=O)c1cc(Oc2ccc(C(F)(F)F)cc2Cl)ccc1[N+](=O)[O-])C(=O)c1cc(Oc2ccc(C(F)(F)F)cc2Cl)ccc1[N+](=O)[O-] | 166 to 168
60 | CCOP(=O)(/C=C/c1cn(C)nc1OCc1ccc(OCc2nc(-c3ccco3)oc2C)c(OC)c1)OCC | 72 to 73
61 | N#Cc1ccccc1-c1ccc(CNC(=S)NN)cc1 | 163 to 164
62 | OCc1ccc2[nH]cc(CCCCN3CC=C(c4ccccc4)CC3)c2c1 | 162 to 164
63 | COc1cc(C(=O)N2CCC(CCN3CCC(C(=O)c4nc5ccccc5n4Cc4ccc(F)cc4)CC3)(c3ccc(Cl)c(Cl)c3)C2)cc(OC)c1OC (stereo not given) | 87 to 90
64 | O=S(=O)(NCCSC1c2ccccc2COc2ccc(/C=C/c3ccc4cc(F)c(F)cc4n3)cc21)C(F)(F)F (stereo not given) | 84 to 87
65 | Cc1cc(N2CCN(C(=O)c3ccc(Nc4ccnc5cc(C(F)(F)F)ccc45)cc3)CC2)nc(N)n1 | 283 to 286
66 | Cc1cc(C)cc(C(=O)NC(C#N)n2cccn2)c1 (stereo not given) | 180 to 183
67 | COC(=O)c1nc(-c2ccc(Br)c(OC)c2F)cc(NC(C)=O)c1Cl | 164 to 165
68 | NC(=O)N(O)Cc1ccc(Oc2ccc(-n3ccnc3)cc2)o1 | 155
69 | CC(C)(C)OC(=O)NCC1=C(CC(=O)O)CCCC1 | 118 to 119
70 | O=C1C(=O)c2ccccc2C2=C1SCC1(CCN(Cc3ccc(F)cc3)CC1)O2 | 104 to 106

Source: a melting point compilation (Tetko et al.; mined from patent text by program, amines drawn as free bases though some values may be those of a salt)
